{"source": "patent US20140373438A1", "about": "“Method for Thinning Fruit” (BAYER CROPSCIENCE AG, priority 2001, published 2014)", "key": {"apple varieties": {"system": "apple varieties", "test": "Plant tolerance by visual scoring in thinning experiments", "format": "in vivo", "conditions": "application rates 500 mg/l and 700 mg/l", "description": "According to visual scoring, formulations comprising […] metamitron show no or only minimal damage when used in thinning experiments on a wide range of apple varieties, while formulations comprising 700 mg/l metamitron cause minimal to clearly discernable damage under identical conditions."}, "[1]": {"system": "\"Golden Delicious\" apple variety", "conditions": "7 days post-flowering, standard 98 g, cited from earlier work"}, "[2]": {"system": "young plant organs (leaves and fruits)", "conditions": "applied, preferably sprayed, together with the thinning formulations"}, "plants": {"system": "plants", "conditions": "use for fruit thinning, J. Amer. Soc. Hort. Sci. 115(1): 14-19 (1990); cited from earlier work"}}, "note": "Like-named read-outs stand apart in the source and are kept apart here."}
{"smiles": "Cc1nnc(-c2ccccc2)c(=O)n1N", "note": "[metamitron]", "values": [{"measurement": "plant damage at the application rates of Guzewski", "setting": "apple varieties", "result": "plant damage (foliar necroses) can be observed"}, {"measurement": "fruit weight", "setting": "[1]; application rate 500 mg/l", "result": 150, "unit": "g"}, {"measurement": "fruit weight", "setting": "[1]; application rate 700 mg/l", "result": 180, "unit": "g"}]}
{"smiles": "O=C[O-].O=C[O-].[Ca+2]", "note": "[calcium formate]", "values": [{"measurement": "plant intolerance symptoms", "setting": "[2]", "result": "plant intolerance symptoms were not observed"}]}
{"smiles": "CSc1nnc(C(C)(C)C)c(=O)n1N", "note": "[metribuzin]", "values": [{"measurement": "plant tolerance", "setting": "plants", "result": "unsatisfactory"}]}
